“Also recorded” adds a separate entry of the source. Where two headings read alike, the source gives them in different places.
Legend:
[1] = type: in vivo
Procedure: FIG. […]
(§1) Weight loss was calculated as percent change in mean group body weight, using the formula: ((W−W0)/W0)×100 • where ‘W’ represents mean body weight of the treated group at a particular day, and ‘W0’ represents mean body weight of the same group at start of treatment. Maximum weight loss was also calculated using the above formula, giving the maximum percentage of body weight lost at any time in the entire experiment for a particular group. Treatment efficacy was assessed by tumor growth inhibition. Tumour volumes of treated groups were given as percentages of tumor volumes of the control groups (% T/C), using the formula: 100×((T−T0)/(C−C0)) • where ‘T’ represents mean tumor volume of a treated group on a specific day during the experiment, ‘T0’ represented mean tumor volume of the same group on the first day of treatment, C represents mean tumor volume of a control group on a particular day of the experiment, and C0 represents mean tumor volume of the same group on the first day of treatment.

[2] = Pathology/necropsy and tumor immunohistochemistry in treated xenograft mice
Source text: At necropsy, skin samples were fixed in 10% buffered formalin, embedded in paraffin, sectioned at 5μ and stained with haematoxylin and eosin.
Five mice per treatment from all remaining groups were given a full necropsy at the end of the study.
Tumor samples were fixed by immersion in 10% zinc formalin then processed in a Tissue-Tek® VIP (Sakura) and embedded in paraffin. Sections for immunohistochemistry were cut at 5μ. Pre-immune rabbit or goat serum (Dako Ltd) was used as the negative control. Sections were immersed in Target Retrieval Solution (Dako Ltd) and heated to 94° C. in a steamer (Black & Decker) for 20 minutes. Endogenous peroxidase activity was quenched with 6% H2O2 in methanol for 15 minutes.
For platelet endothelial cell adhesion molecule (PECAM-1, CD31) antigen and EGFR antigen, the sections were incubated overnight at room temperature with a polyclonal goat anti-PECAM-1 IgG (Santa Cruz Biotechnology, Santa Cruz, Calif.) diluted 1:800 in Antibody Diluent (Dako Ltd) or with a polyclonal rabbit anti-EGFR IgG (BioGenex, San Ramon, Calif.) diluted 1:50 in Antibody Diluent (Dako Ltd). Sections were incubated with Vectastain Elite ABC-peroxidase (Vector Laboratories) for 45 minutes at room temperature.
To detect apoptosis, the TUNEL TdT-FragEL™ DNA fragmentation detection kit (Oncogene Research Products, San Diego, Calif.) was used according to the manufacturer's recommendations. For all four antigens, Vector Nova Red (Vector Laboratories) was the final chromogen and haematoxylin the nuclear counterstain.

H460a NSCLC xenograft = test: Tumor growth inhibition in H460a NSCLC xenograft model; type: in vivo, athymic nude mice
Procedure: (§2) Mice were implanted with H460a NSCLC cells. […] Tumor size was measured 3 times per week. Values are means, n=10.
as §2
(§3) H460a cells (provided by Dr Jack Roth, MD, Anderson) were grown in Dulbecco's Modified Eagle Media (DMEM) supplemented with 10% Foetal Bovine Serum (FBS). A549 cells (American Type Culture Collection [Manassas, Va.] were grown in Roswell Park Memorial Institute medium (RPMI) 1640+10% FBS. The cell concentrations for implant were 1×10^7 cells/0.2 mL for H460a and 7.5×10^6 cells/0.2 mL for A549.
(§4) Cells were suspended in phosphate-buffered saline, and implanted subcutaneously in the right flank of each mouse. Once palpable tumours were established, animals were randomised so that all groups had similar starting mean tumour volumes of 100-150 mm^3. Tumour measurements and mouse weights were taken three times per week. Animals were individually monitored throughout the experiment.
All groups were treated daily for 3 weeks. […]
Weight loss was calculated as percent change in mean group body weight, using the formula: ((W−W0)/W0)×100 • where ‘W’ represents mean body weight of the treated group at a particular day, and ‘W0’ represents mean body weight of the same group at start of treatment. Maximum weight loss was also calculated using the above formula, giving the maximum percentage of body weight lost at any time in the entire experiment for a particular group. Treatment efficacy was assessed by tumor growth inhibition. […]
(§5) Tumor growth inhibition was calculated using the formula: 100−% T/C
(§6) Tumor volume (mm^3) was calculated using the ellipsoid formula: (Dx(d^2))/2 • where ‘D’ represents the large diameter of the tumor, and ‘d’ represents the small diameter. In some cases, tumor regression and/or percentage change in tumor volume was calculated using the formula: ((T−T0)/T0)×100 • where ‘T’ represents mean tumor volume of the treated group at a particular day, and ‘T0’ represents mean tumor volume of the same treated group at the start of treatment.

A549 NSCLC xenograft = type: in vivo
Procedure: Mice were implanted with A549 NSCLC cells. […] Tumor size was measured 3 times per week. Values are means, n=10.
as §3, §4
All groups were treated daily for 3 weeks.
All groups were treated every 6 days for 3 weeks (a total of three injections).
as §1, §5, §6

[3] = cited from earlier work
[4] = Chronic-dose plasma and tumor concentrations of erlotinib in tumor-bearing mice; type: in vivo, nu/nu athymic mice
Procedure: On day 28 post tumor implant, blood (from the retro-orbital sinus) and tumor samples were collected at 1 and 6 hours post dosing. […] Values are means±SD, n=3.
(§7) For single-dose pharmacokinetics (PK), blood samples from three mice per time point were collected by cardiac puncture at 5, 15, 30, 60 minutes and 2, 4, 8, 16, 24 hours post-dose. For chronically treated animals, blood samples from two or three mice per time point were collected via the retro-orbital sinus at 1 and 6 hours. Collection tubes contained ethylene diamine tetra-acetic acid (EDTA) as anticoagulant. Samples were stored at −70° C. […] PK parameters were estimated by non-compartmental analysis of the composite data, using the PK evaluation programme WinNonlin PRO® version 3.1 (Pharsight Inc).

[5] = Single-dose pharmacokinetics of erlotinib in non-tumor bearing mice; type: in vivo, female nu/nu athymic mice
Procedure: as §7
Three animals per time point were evaluated for PK data (FIG. 3).

[6] = erlotinib monotherapy, treated xenografts

Q: Which MTD ([1]; cisplatin every 6 days x3 i.p., athymic nude mice) does the source give for N.N.[Cl][Pt][Cl] [cisplatin] here?
A: 6 mg/kg

Q: What about the “Primary microscopic kidney lesions” value ([2]; cisplatin alone and in combination, severity dose dependent) of the same molecule?
A: tubular necrosis and tubular basophilia

Q: And the Tumor growth inhibition (H460a NSCLC xenograft; cisplatin 1.5 mg/kg i.p. every 6 days)?
A: 42%

Q: What about the Tumor growth inhibition (H460a NSCLC xenograft; cisplatin 6 mg/kg i.p. every 6 days) of the same molecule?
A: 81%

Q: What about the Tumor growth inhibition (A549 NSCLC xenograft; cisplatin 1.5 mg/kg, non-significant) of the same molecule?
A: 30%

Q: What about the “Extent of partial regression” value (A549 NSCLC xenograft; cisplatin 6 mg/kg) of the same molecule?
A: 2%

Q: And the “Number of partial regressions” value (A549 NSCLC xenograft; cisplatin 6 mg/kg)?
A: one

Q: What about the Tumor growth inhibition (A549 NSCLC xenograft; cisplatin 6 mg/kg, day 47 post tumor implantation) of the same molecule?
A: 88%

Q: And the MTD ([3]; cisplatin every 4 days x3 i.v. in nude mice (Riccardi 2001))?
A: 4 mg/kg

Q: What about the MTD ([3]; cisplatin every 6 days x2 i.v. in nude mice (Perez-Soler 2001)) of the same molecule?
A: 4 mg/kg

Q: And the MTD ([3]; cisplatin every 6 days x3 i.p. in C57/B16 mice (van Moorsel 1999))?
A: 6 mg/kg

Q: For C#Cc1cccc(Nc2ncnc3cc(OCCOC)c(OCCOC)cc23)c1 [erlotinib, [6,7-bis(2-methoxyethoxy)-4-quinazolin-4-yl]-(3-ethynylphenyl) amine], which “Correlation of tumor concentrations with plasma concentrations” value ([4]; H460a tumor-bearing mice) is on record?
A: correlated well

Q: And the “Dose dependence of exposure” value ([4]; ascending oral doses 6.3-150.0 mg/kg, tumor-bearing mice)?
A: dose-dependent and more than dose-proportional

Q: And the Tolerability ([1]; erlotinib 150 mg/kg for 3 weeks, previous efficacy studies (unpublished observation))?
A: well tolerated

Q: And the Toxicity outcome ([1]; erlotinib 200 mg/kg group)?
A: marked weight loss and all were euthanized

Q: What about the Toxicity outcome ([1]; erlotinib 400 mg/kg group) of the same molecule?
A: One mouse in the 400 mg/kg group died

Q: What about the “Time of maximum plasma concentration post dose” value ([5]; 20 and 100 mg/kg single dose by gavage) of the same molecule?
A: 0.5 to 1.0 h

Q: What about the “Dose proportionality of exposure (AUC)” value ([5]; 20 vs 100 mg/kg single dose) of the same molecule?
A: dose-proportional

Q: And the “Mean maximum plasma concentration” value ([5]; erlotinib 20 mg/kg single dose by gavage)?
A: ~9,100 ng/mL

Q: And the “Mean maximum plasma concentration” value ([5]; erlotinib 100 mg/kg single dose by gavage)?
A: approximately 24,000 ng/mL

Q: What about the “Ki-67 proliferative index in tumor” value ([2]; erlotinib 1000 mg/kg (so in the source), both NSCLC xenograft tumor models) of the same molecule?
A: mild decrease

Q: What about the “Haematology and clinical chemistry parameters” value ([2]; erlotinib monotherapy) of the same molecule?
A: no changes

Q: And the “Skin lesions (macroscopic)” value ([2]; erlotinib monotherapy (100 mg/kg/day for 21 days), transient)?
A: substantial reddening and crusting of the skin of the muzzle; also recorded: reddened and flaky

Q: And the “Angiogenesis, microvascular density (MVD) via CD31 staining” value [2, 6]?
A: no clear effect

Q: What about the “Frequency of apoptosis in tumor cells (TUNEL)” value [2, 6] of the same molecule?
A: no significant difference

Q: And the Tumor regressions (H460a NSCLC xenograft; erlotinib monotherapy dose response study)?
A: no partial or complete regressions

Q: What about the Tumor growth inhibition (A549 NSCLC xenograft; erlotinib 25 mg/kg, day 47 post tumor implantation) of the same molecule?
A: 25%

Q: And the “Extent of partial regression” value (A549 NSCLC xenograft; erlotinib 100 mg/kg)?
A: 2%

Q: What about the “Number of partial regressions” value (A549 NSCLC xenograft; erlotinib 100 mg/kg) of the same molecule?
A: one

Q: What about the Tumor growth inhibition (A549 NSCLC xenograft; erlotinib 100 mg/kg, day 47 post tumor implantation) of the same molecule?
A: 93%
